The values that follow come from patent publication US7470705B2, “Compounds and methods for treating dyslipidemia” (Eli Lilly and Company, priority 2004, dated 2008).

SMILES strings stand for the structures.

This test relates to transgenic mice that express both human CETP and human apolipoprotein A-1. Briefly: Assay of plasma lipids in vivo (HDL cholesterol elevation). The following applies: single oral dose 30 mg/kg; 8 hr after dosing; serum HDL cholesterol relative to control; human CETP/human apoA-1 transgenic mice. The protocol:
Assay of Plasma Lipids In Vivo
Activity of compounds of this invention in vivo can be determined by comparing the level of elevation of HDL cholesterol relative to control by a given amount of a compound in a CETP-containing animal species. A strain of transgenic mice that express both human CETP and human apolipoprotein A-1 (Taconic, Germantown, N.Y.) is used to test compounds of this invention. Test compounds are administered once orally in selected aqueous or oil based vehicles. At various times after dosing, ranging from 4 h to 24 h, blood is obtained. Blood is allowed to clot and serum is obtained by centrifugation. HDL cholesterol levels in the serum is determined by HDL-C plus reagents (Roche/Hitachi, Indianapolis, Ind.) with a clinical chemistry analyzer (Roche/Hitachi, Indianapolis, Ind.). Additional serum lipids can be analyzed by enzymatic methods. Lipids in the VLDL, LDL and HDL fractions are analyzed by enzymatic methods after precipitation or size exclusion chromatography.
As for `CC[C@@H]1C[C@H](N(Cc2cc(C(F)(F)F)cc(C(F)(F)F)c2)c2nnn(CCN)n2)c2nc(C(F)(F)F)ccc2N1C(=O)OC(C)C` [Example 15, (2R,4S)-cis-4-[[2-(2-Amino-ethyl)-2H-tetrazol-5-yl]-(3,5-bis-trifluoromethyl-benzyl)-amino]-2-ethyl-6-trifluoromethyl-3,4-dihydro-2H-[1,5]naphthyridine-1-carboxylic acid isopropyl ester], the “% HDL cholesterol increase” value came out at 91%.

Take `CC(C)OC(=O)N1c2ccc(C(F)(F)F)nc2C(N(Cc2cc(C(F)(F)F)cc(C(F)(F)F)c2)c2nnn(C)n2)CC1C1CC1` (racemic) [Example 52, (+/−)-cis-4-[(3,5-Bis-trifluoromethyl-benzyl)-(2methyl-2H-tetrazole-5-yl)-amino]-2-cyclopropyl-6-trifluoromethyl-3,4-dihydro-2H-[1,5]naphthyridine-1-carboxylic acid isopropyl ester]: the “% HDL cholesterol increase” value was 66%. Regarding `CCC1CC(N(Cc2cc(C(F)(F)F)cc(C(F)(F)F)c2)c2nnn(C)n2)c2nc(OC)ccc2N1C(=O)OC(C)C` (racemic) [Example 8, (+/−)-cis-4-[(3,5-Bis-trifluoromethyl-benzyl)-2-methyl-2H-tetrazol-5-yl)-amino]-2-ethyl-6-methoxy-3,4-dihydro-2H-[1,5]naphthyridine-1-carboxylic acid isopropyl ester], the “% HDL cholesterol increase” value is 313%.

As for `CC[C@H]1C[C@@H](N(Cc2cc(C(F)(F)F)cc(C(F)(F)F)c2)c2nnn(CCO)n2)c2nc(C(F)(F)F)ccc2N1C(=O)OC(C)C` (stereo in doubt) [Example 18, (2S,4R)-4-[(3,5-Bis-trifluoromethyl-benzyl)-[2-(2-hydroxy-ethyl)-2H-tetrazol-5-yl)-amino]-2-ethyl-6-trifluoromethyl-3,4-dihydro-2H-[1,5]naphthyridine-1-carboxylic acid isopropyl ester], the “% HDL cholesterol increase” value was found to be 187%.

For `CC[C@@H]1C[C@H](N(Cc2cc(C(F)(F)F)cc(C(F)(F)F)c2)c2nnn(C)n2)c2nc(C(F)(F)F)ccc2N1C(=O)OC(C)C` [Example 11], the “% HDL cholesterol increase” value came out at 134%.
